This is an account of results in patent publication US20230065014A1, “Nitro-Fatty Acid-Containing Microbubbles and Uses Therefor” (University of Pittsburgh-Of the Commonwealth System of …, priority 2020, published 2023).

The target of experiment [1] is T1, PPAR-γ (peroxisome proliferator activated receptor gamma) (Homo sapiens, UniProt P37231).
T1 sequence (P37231 1-505): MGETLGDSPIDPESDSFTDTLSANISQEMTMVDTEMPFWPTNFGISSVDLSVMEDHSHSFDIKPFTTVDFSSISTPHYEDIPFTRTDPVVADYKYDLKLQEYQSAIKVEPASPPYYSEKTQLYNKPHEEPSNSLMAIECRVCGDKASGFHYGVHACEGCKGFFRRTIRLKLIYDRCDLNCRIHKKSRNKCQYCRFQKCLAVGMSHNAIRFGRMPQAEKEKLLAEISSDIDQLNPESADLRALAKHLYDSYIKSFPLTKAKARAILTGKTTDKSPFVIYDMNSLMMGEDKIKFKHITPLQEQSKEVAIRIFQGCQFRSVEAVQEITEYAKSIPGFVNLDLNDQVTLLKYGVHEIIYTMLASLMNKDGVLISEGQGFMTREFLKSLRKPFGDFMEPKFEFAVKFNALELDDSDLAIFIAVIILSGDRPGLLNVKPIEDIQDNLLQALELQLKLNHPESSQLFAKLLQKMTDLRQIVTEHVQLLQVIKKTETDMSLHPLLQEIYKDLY
Conditions: as described in WO 2010/014889 A2; cited from earlier work.

The next experiment deals with hepatocytes. Conditions: in vitro; cited from earlier work.
Experiment [2] concerns fibrotic vascular and tissue remodeling in heart, liver and lung. Conditions: Ang II, hypoxia and obesity models; cited from earlier work.
In another experiment the test system is human stellate cells. As to conditions: in vitro; cited from earlier work.
Experiment [3] concerns long-term NASH diet-induced liver damage. As to conditions: NASH diet mice; cited from earlier work.
Experiment [4] relates to Bleomycin-treated 3 mo old C57Bl6 mice. Kind of experiment: Reversal of established fibrosis in bleomycin-treated mice. The experiment is classed as in vivo. As to conditions: 7.5 mg/kg oral, 2 additional weeks. An excerpt: Nitroalkenes can reverse established fibrosis.

`CCCCCC=CC/C(=C\CCCCCCCC(=O)O)[N+](=O)[O-]` (stereo in doubt) [10-nitro linoleic acid, (9E,12Z)-10-nitrooctadeca-9,12-dienoic acid]: the “activation of the PPAR-γ receptor” value in experiment [1] was “potent, selective activators”.
Consider `CCCCC/C=C(\C/C=C\CCCCCCCC(=O)O)[N+](=O)[O-]` [12-nitro linoleic acid, 12-nitrolinoleic acid], for which the “activation of the PPAR-γ receptor” value in experiment [1] is “potent, selective activators”.
With NO2-oleic acid, the “TG biosynthesis and accumulation” value in the experiment with hepatocytes was “inhibited TG biosynthesis and accumulation”. Besides, in experiment [2], the “fibrotic vascular and tissue remodeling” value is “inhibit fibrotic vascular and tissue remodeling”. In addition, in experiment [1], the “activation of the PPAR-γ receptor” value is recorded as “nanomolar activators”. Further, in the experiment on human stellate cells, the fibrogenesis entry is reported as “inhibited fibrogenesis”. Moreover, in experiment [3], the “RNA-sequencing analysis of liver tissue” value is “inflammation and fibrosis as major pathways suppressed”; the “SREBPI proteolytic activation and subsequent lipogenesis gene expression” value was “inhibition of SREBPI proteolytic activation and subsequent lipogenesis gene expression”; the “body composition and energy metabolism (CLAMS and NMR-based analysis)” value was “improved body composition and energy metabolism”; the “hepatic triglyceride (TG) accumulation” value was “inhibiting hepatic triglyceride (TG) accumulation”. Moreover, the “liver steatosis and fibrosis by photoacoustic-ultrasound imaging” value in experiment [3] was “robust inhibition of liver steatosis and fibrosis”. In addition, in experiment [4], the Ashcroft scoring result is reported as “decreased collagen deposition”; the “Masson's trichrome and αSMA staining” value is given as “resolution of pathologic remodeling”; the “qRT-PCR of TGFβ, Col1A1, αSMA, vimentin, MMP7 and E-cadherin expression” value is recorded as “inhibition of these pro-fibrotic indices”; the reversal of fibrosis result is “significant reversal of fibrosis”.
With Nitro-linoleic acid, the “fibrotic vascular and tissue remodeling” value in experiment [2] is “inhibit fibrotic vascular and tissue remodeling”. The “activation of the PPAR-γ receptor” value in experiment [1] is “nanomolar activators”.
